Results taken from US11426473B2, “Nitrogen-containing compound or salt thereof, or metal complex thereof” (FUJIFILM Corporation, priority 2013, dated 2022).

Assays:
[1] = tested on: U87MG cells subcutaneous tumor; experiment: Treatment experiment of subcutaneously U87MG-transplanted model using [90Y]-(A8); type: in vivo, mouse; settings: 1 dose; for Rate of inhibition: 12 days after administration, above 100% indicated as 100%; for Tumor volume 12 days after administration / Tumor volume At start of administration: n 10, Mean + SD; for Tumor volume At start of administration: baseline; for The number of individuals having tumor regression: of n 10
Method: (§1) U87MG cells were subcutaneously transplanted at 1×10^7 cells/mouse to the right flank of Balb/c Slc-nu/nu (SLC Japan, Inc., male, 6 weeks old). After 2 weeks, mice whose tumors became 100 to 500 mm^3 were grouped. Phosphate-buffered saline (PBS) or the radiolabeled compound [90Y]-(P2) was administered to the tail veins of the mice, and their tumor volumes were measured. When the tumor volumes of the mice in the PBS group exceeded 2,000 mm^3, which is a humanistic endpoint, the antitumor effect was evaluated. The evaluation values were the rate of inhibition of tumor growth ((1−(Average tumor volume of the compound administration group−Average tumor volume of the compound administration group before administration)/(Average tumor volume of the PBS group−Average tumor volume of the PBS group before administration))×100 (provided that the rate of inhibition exceeding 100% was indicated as 100%)) and the number of individuals having a tumor volume equal to or smaller than that at the start of the experiment (the number of individuals having tumor regression).
U87MG cells were subcutaneously transplanted at 1×10^7 cells/mouse to the right flank of Balb/cAJcl-nu/nu (CLEA Japan, Inc., male, 6 weeks old). After 2 weeks, mice whose tumors became 100 to 500 mm^3 were grouped. Phosphate-buffered saline (PBS) or the radiolabeled compound [^90Y]-(A8) was administered to the tail veins of the mice, and their tumor volumes were measured. The evaluation values were calculated in the same way as in Test Example 8 to evaluate the antitumor effect.

[2] = tested on: T98G cell (human glioblastoma) subcutaneous tumor; experiment: Treatment experiment of subcutaneously T98G-transplanted model using [90Y]-(A8); type: in vivo, mouse; settings: Dose 11.1 MBa, 1 dose
Method: as §1
A mixture of a T98G cell suspension (human glioblastoma, 1×10^7 cells) and Matrigel (Becton, Dickinson and Company) in equal amounts was subcutaneously transplanted to the right flank of Balb/cAJcl-nu/nu (CLEA Japan, Inc., female, 6 weeks old). After 90 days, the mice were grouped when their tumors BECAME 100 to 400 mm^3. Phosphate-buffered saline (PBS) or the radiolabeled compound [^90Y]-(A8) was administered to the tail veins of the mice, and their tumor volumes were measured. The evaluation values were calculated in the same way as in Test Example 8 to evaluate the antitumor effect.

SMILES: Cc1cc(OCCCC(=O)NCCNC(=O)C(CS(=O)(=O)O)NC(=O)C(CS(=O)(=O)O)NC(=O)CN2CCN(CC(=O)[O-])CCN(CC(=O)[O-])CCN(CC(=O)[O-])CC2)cc(C)c1S(=O)(=O)NC(CNC(=O)c1ccc(CCc2ccc3c(n2)NCCC3)cc1)C(=O)O.[90Y+3] (stereo not shown) [[^90Y]-(A8)]
- Rate of inhibition ([1]; Dose 5.55 MBa): 69%
- Tumor volume 12 days after administration ([1]; Dose 5.55 MBa): 759 ± 344 mm^3
- Tumor volume At start of administration ([1]; Dose 5.55 MBa): 239 ± 89 mm^3
- The number of individuals having tumor regression ([1]; Dose 5.55 MBa): 0
- Rate of inhibition ([1]; Dose 11.1 MBa): 100%
- Tumor volume 12 days after administration ([1]; Dose 11.1 MBa): 199 ± 88 mm^3
- Tumor volume At start of administration ([1]; Dose 11.1 MBa): 243 ± 101 mm^3
- The number of individuals having tumor regression ([1]; Dose 11.1 MBa): 7
- Rate of inhibition ([1]; Dose 14.8 MBa): 100%
- Tumor volume 12 days after administration ([1]; Dose 14.8 MBa): 251 ± 112 mm^3
- Tumor volume At start of administration ([1]; Dose 14.8 MBa): 251 ± 110 mm^3
- The number of individuals having tumor regression ([1]; Dose 14.8 MBa): 6
- Rate of inhibition ([2]; 22 days after administration, above 100% indicated as 100%): 100%
- Tumor volume 22 days after administration ([2]; n 8, Mean ± SD): 123 ± 60 mm^3
- Tumor volume At start of administration ([2]; n 8, Mean ± SD, baseline): 201 ± 75 mm^3
- The number of individuals having tumor regression ([2]; of n 8): 6
